# Measurements: paper PMC4694564 (Molecular pharmaceutics, 2015)
# T1: carboxylesterase 2 (CES2) (Homo sapiens, UniProt O00748)
# T1 sequence (O00748 27-559): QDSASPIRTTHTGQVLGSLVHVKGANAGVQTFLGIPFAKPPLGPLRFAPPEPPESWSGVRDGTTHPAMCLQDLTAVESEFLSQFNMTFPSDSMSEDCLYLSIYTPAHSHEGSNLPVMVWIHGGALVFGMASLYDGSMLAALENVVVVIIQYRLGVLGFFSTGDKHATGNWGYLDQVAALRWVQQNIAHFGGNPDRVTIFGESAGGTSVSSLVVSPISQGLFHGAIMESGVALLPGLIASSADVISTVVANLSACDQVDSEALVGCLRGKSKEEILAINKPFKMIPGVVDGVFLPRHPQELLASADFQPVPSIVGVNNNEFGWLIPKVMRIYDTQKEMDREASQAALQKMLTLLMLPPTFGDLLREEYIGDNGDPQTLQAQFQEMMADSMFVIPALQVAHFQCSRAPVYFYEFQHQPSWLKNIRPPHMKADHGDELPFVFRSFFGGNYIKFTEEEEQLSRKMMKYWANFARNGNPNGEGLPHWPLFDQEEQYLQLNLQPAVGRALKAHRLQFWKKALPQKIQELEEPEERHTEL
# T2: carboxylesterase 1 (CES1) (Homo sapiens, UniProt P23141)
# T2 sequence (P23141 18-567): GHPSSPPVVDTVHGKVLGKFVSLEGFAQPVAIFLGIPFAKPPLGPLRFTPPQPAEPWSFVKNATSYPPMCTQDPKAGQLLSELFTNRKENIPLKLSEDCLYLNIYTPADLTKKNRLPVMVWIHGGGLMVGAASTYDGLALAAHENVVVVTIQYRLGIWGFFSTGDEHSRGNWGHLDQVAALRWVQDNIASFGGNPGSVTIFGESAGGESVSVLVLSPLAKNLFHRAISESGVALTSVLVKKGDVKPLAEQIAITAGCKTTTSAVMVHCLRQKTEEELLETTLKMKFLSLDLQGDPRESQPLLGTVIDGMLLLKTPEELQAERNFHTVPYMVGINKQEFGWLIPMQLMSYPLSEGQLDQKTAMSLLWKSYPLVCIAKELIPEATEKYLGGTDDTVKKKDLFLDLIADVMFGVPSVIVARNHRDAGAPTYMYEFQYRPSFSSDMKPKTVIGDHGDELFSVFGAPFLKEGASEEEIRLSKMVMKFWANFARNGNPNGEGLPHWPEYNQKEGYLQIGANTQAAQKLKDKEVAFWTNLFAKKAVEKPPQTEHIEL
# B1: carboxylesterase 1 (CES1) (Homo sapiens) (protein)
# chain: GHPSSPPVVDTVHGKVLGKFVSLEGFAQPVAIFLGIPFAKPPLGPLRFTPPQPAEPWSFVKNATSYPPMCTQDPKAGQLLSELFTNRKENIPLKLSEDCLYLNIYTPADLTKKNRLPVMVWIHGGGLMVGAASTYDGLALAAHENVVVVTIQYRLGIWGFFSTGDEHSRGNWGHLDQVAALRWVQDNIASFGGNPGSVTIFGESAGGESVSVLVLSPLAKNLFHRAISESGVALTSVLVKKGDVKPLAEQIAITAGCKTTTSAVMVHCLRQKTEEELLETTLKMKFLSLDLQGDPRESQPLLGTVIDGMLLLKTPEELQAERNFHTVPYMVGINKQEFGWLIPMQLMSYPLSEGQLDQKTAMSLLWKSYPLVCIAKELIPEATEKYLGGTDDTVKKKDLFLDLIADVMFGVPSVIVARNHRDAGAPTYMYEFQYRPSFSSDMKPKTVIGDHGDELFSVFGAPFLKEGASEEEIRLSKMVMKFWANFARNGNPNGEGLPHWPEYNQKEGYLQIGANTQAAQKLKDKEVAFWTNLFAKKAVEKPPQTEHIEL
# What was measured:
# [1] = biological target: T1, carboxylesterase 2 (CES2); test: inhibition of recombinant human CES2; format: biochemical
# [2] = biological target: T2, carboxylesterase 1 (CES1); test: inhibition of recombinant human CES1; format: biochemical
# purified protein = substrate: CCOC(=O)C1=C[C@@H](OC(CC)CC)[C@H](NC(C)=O)[C@@H](N)C1; test: purified protein; format: biochemical, Homo sapiens
Molecule,IC50 [1] [nM],IC50 [2] [nM],Km (purified protein) [µM]
"Cc1cc(OC(=O)NC2CCCCC2)ccc1F [WWL50, 4-fluoro-3-methylphenyl cyclohexylcarbamate]",429 ± 2.6,4.3 ± 0.6,
B1,,,2900
